Reference: PubChem BioAssay AID1996
In brackets after ≈: the same amount, converted by molar mass.

Details: buffer; pH 7.4; 200.0 µM

Row | SMILES | solubility kinetic [µg/mL]
1 | O=C(NCc1cccc(Cl)c1)NC(=O)c1csc([N+](=O)[O-])c1 | < 0.2
2 | CCCC1=[N+](CC(C)=O)CCn2c(C)ccc21.[Br-] | > 47
3 | O=C(Nc1nc2ccccc2[nH]1)c1ccccc1[N+](=O)[O-] | > 42.3
4 | O=C(Nc1ccc(NC(=O)c2ccccc2Cl)nc1)c1ccco1 | 10.2 (≈ 29.8 µM)
5 | COc1ccc(NC(=S)Nc2ccccc2)c(OC)c1 | > 43.3
6 | Oc1ccc2oc3c(c2c1C=NCc1ccncc1)CCCC3 | 16.9 (≈ 55.2 µM)
7 | Cc1nc2ccccn2c1-c1ccnc(SCc2ccc(Cl)cc2)n1 | < 0.2
8 | CSc1ccc(/C=C/C(=O)OCC(=O)N(C)CCC#N)cc1 | 29.9 (≈ 93.9 µM)
9 | CCc1ccc(NC(=O)CCC(=O)c2ccc(C)cc2)cc1 | 4.3 (≈ 14.6 µM)
10 | Cc1nc(SCc2ccccc2)c2ccsc2n1 | < 0.3
11 | O=c1c(-c2ccccc2)cnc2n1CCS2 | > 34.5
12 | Cc1occc1C(=O)/C(C#N)=C/c1ccc(O)c(Br)c1 | > 49.8
13 | CCn1cc(CCC(=O)NCc2ccccc2OC)c2ccccc21 | 30.5 (≈ 90.7 µM)
14 | Cn1c(=O)n(C)c2cc(S(=O)(=O)Nc3ccc(F)cc3)ccc21 | 33.5 (≈ 99.9 µM)
15 | C#CCn1cc(/C=C2\NC(=O)NC2=O)c2ccccc21 | 1.2 (≈ 4.52 µM)
16 | CC(C)(C)C1CCC(C(=O)Nc2nccs2)CC1 (stereo not drawn) | 0.3 (≈ 1.13 µM)
17 | CCC(=O)N1CC(=O)Nc2ccc(F)cc2C1c1ccc(F)cc1 (stereo not drawn) | > 49.6
18 | CC(C)(C)NC(=O)NCc1cccnc1 | 29.4 (≈ 142 µM)
19 | CS(=O)(=O)N1CCC(C(=O)Nc2ccc(Cl)cc2)CC1 | 13.4 (≈ 42.3 µM)
20 | COc1ccc(CCNC2CCCCCC2)cc1 | > 37.1
21 | COc1ccc2c(c1)CCC/C2=N/OC(=O)c1ccccc1OC | 2.6 (≈ 7.99 µM)

The remaining lines, values ahead:

Row | solubility kinetic [µg/mL] | SMILES
22 | 7.7 (≈ 24.6 µM) | CCOC(=O)c1ccc2c(c1)N(C)C(=O)c1ccccc1S2
23 | > 53.9 | O=C(O)/C=C/c1ccc(S(=O)(=O)Nc2ccc3[nH]c(=O)[nH]c3c2)cc1
24 | < 0.1 | COCCCNc1nc(N)c([N+](=O)[O-])c(Nc2cc(OC)ccc2OC)n1
25 | > 40.8 | CC(=O)Nc1cccc(C(=O)NCCc2ccco2)c1
26 | > 37.1 | Cc1ccccc1C(=O)/C=C1/SCC(=O)N1C
27 | 1.8 (≈ 7.15 µM) | CC(=O)c1sc(-c2ccc(Cl)cc2)cc1N
28 | > 42.8 | O=C(NC1=NCCS1)c1ccccc1Br
29 | 43 (≈ 128 µM) | C(=C\c1ccccc1)/CN1CCN(Cc2ccc3c(c2)OCO3)CC1
30 | > 45.5 | Cn1cnc(S(=O)(=O)Nc2ccc(OC(F)F)cc2)c1
31 | 37.2 (≈ 115 µM) | c1ccc(CNc2ncnc3scc(-c4cccs4)c23)nc1
32 | > 43.4 | O=C(c1cc([N+](=O)[O-])ccc1N1CCCC1)N1CCCC1
33 | 23.2 (≈ 61.3 µM) | CC1(c2ccccc2)NC(=O)N(CC(=O)N2CC(=O)Nc3ccccc32)C1=O (stereo not drawn)
34 | > 45.8 | Cc1ccc(OCCC(=O)OCC(=O)NC2CCCC2)cc1
35 | 11.2 (≈ 37 µM) | COc1cccc(NC(=S)NC(=O)/C=C/c2ccco2)c1
36 | 3.8 (≈ 10.8 µM) | Cc1ccc2nc(NC(=O)CC3Oc4ccccc4NC3=O)sc2c1 (stereo not drawn)
37 | 0.5 (≈ 1.58 µM) | CC(C)CCNC(=O)c1ccc2c(Cl)c3c(nc2c1)CCC3
38 | > 41.6 | O=C(c1cccc2c1-c1ccccc1C2)N1CCCCC1
39 | 1.1 (≈ 3.79 µM) | Cc1ccc2c(c1)c(C1=c3ccccc3=NC1=O)c(O)n2C
40 | 4.2 (≈ 15.4 µM) | N#Cc1ccsc1NC(=O)c1cccc([N+](=O)[O-])c1
41 | > 34.2 | NC(=S)N(c1ccccc1)c1ccccc1
42 | 47.4 | CCCC(C(=O)OCCN(CC)CC)(c1ccccc1)c1ccccc1.Cl
43 | > 52.1 | c1ccc(-n2cc(CN3CCCC3)c(-c3ccc4c(c3)OCO4)n2)cc1
44 | > 35.4 | O=S(=O)(N1CCOCC1)N1CCOCC1
45 | > 51.4 | CC1CCN(C(=O)CN(Cc2ccc(F)cc2)S(C)(=O)=O)CC1
46 | 35.3 (≈ 132 µM) | O=C(CN1CCCCCC1)Nc1ccc(Cl)cn1
47 | 38.6 (≈ 112 µM) | Cc1cccc(CN2CCN(C(=O)c3cccc4ccccc34)CC2)c1
48 | 34.9 (≈ 120 µM) | O=CN1CCN(C(=O)c2cc3cc(Cl)ccc3[nH]2)CC1
